This experiment has as its system BDF1 mice, P388 leukemia ip, median survival T/C. The experiment in a line: NCI In Vivo Anticancer Drug Screen. Data for tumor model P388 Leukemia (intraperitoneal) in B6D2F1 (BDF1) mice. The following applies: endpoint: median survival time, higher = longer survival. The essentials:
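Steps: implant the tumour, treat one group with compound and another with vehicle, record survival, then divide treated by control.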

The mark [1] stands for this setting: dose: 100.0 mg/kg/injection, schedule: Q01DX009 (ip), vehicle: saline with Tween-80.
The mark [2] stands for this setting: dose: 100.0 mg/kg/injection, schedule: Q04DX003 (ip), vehicle: saline with Tween-80.
Where [3] appears, read: dose: 200.0 mg/kg/injection, schedule: Q01DX009 (ip), vehicle: saline with Tween-80.
[4] abbreviates: dose: 200.0 mg/kg/injection, schedule: Q04DX003 (ip), vehicle: saline with Tween-80.
The mark [5] stands for this setting: dose: 400.0 mg/kg/injection, schedule: Q04DX003 (ip), vehicle: saline with Tween-80.
Where [6] appears, read: dose: 100.0 mg/kg/injection, schedule: Q04DX003 (ip), vehicle: Klucel (hydroxypropylcellulose) (HPC).
The mark [7] stands for this setting: dose: 200.0 mg/kg/injection, schedule: Q04DX003 (ip), vehicle: Klucel (hydroxypropylcellulose) (HPC).
The mark [8] stands for this setting: dose: 400.0 mg/kg/injection, schedule: Q01DX009 (ip), vehicle: saline with Tween-80.

Consider 17 molecules from PubChem BioAssay AID328 (DTP/NCI, 2004).

Several values for one entry are separate records, joined by “and”; a condition that tells them apart may be missing. Equal values may be shown once. Toxic doses and inconclusive results are not listed.

As for `CCOC(=O)CC(=O)N/N=C(/C)C(=O)OCC`, the T/C is 108 % of control under setting [1]; 88 % of control under setting [2]; 99 % of control under setting [3]; 97 % of control under setting [4]; 111 % of control under setting [5].

Take `Nc1nc(Cl)nc2c1ncn2C1OC(CO)C(O)C1O` (configuration not stated): the T/C reads like this: (dose: 12.5 mg/kg/injection, schedule: Q01DX010 (ip), vehicle: carboxymethylcellulose (CMC)) 123 % of control; (dose: 50.0 mg/kg/injection, schedule: Q01DX010 (ip), vehicle: carboxymethylcellulose (CMC)) 161 % of control; (dose: 100.0 mg/kg/injection, schedule: Q01DX010 (ip), vehicle: carboxymethylcellulose (CMC)) 238 % of control; (dose: 112.5 mg/kg/injection, schedule: Q01DX009 (ip), vehicle: saline) 159 % of control and 191 % of control; (dose: 168.75 mg/kg/injection, schedule: Q01DX009 (ip), vehicle: saline) 177 % of control.

Regarding `C(=NC(c1ccccc1)(c1ccccc1)c1ccccc1)=NC(c1ccccc1)(c1ccccc1)c1ccccc1`, the T/C (dose: 12.5 mg/kg/injection, schedule: Q01DX009 (ip), vehicle: gum acacia) is 87 % of control; the T/C (dose: 25.0 mg/kg/injection, schedule: Q01DX009 (ip), vehicle: gum acacia) is 100 % of control; the T/C (dose: 50.0 mg/kg/injection, schedule: Q01DX009 (ip), vehicle: gum acacia) was 95 % of control; the T/C (dose: 100.0 mg/kg/injection, schedule: Q01DX009 (ip), vehicle: gum acacia) was 88 % of control; the T/C (dose: 100.0 mg/kg/injection, schedule: Q04DX003 (ip), vehicle: gum acacia) is 100 % of control; the T/C (dose: 200.0 mg/kg/injection, schedule: Q01DX009 (ip), vehicle: gum acacia) was 88 % of control. For the setting “dose: 200.0 mg/kg/injection, schedule: Q04DX003 (ip), vehicle: gum acacia”, the T/C was 91 % of control.

Take `CC(=O)Nc1ccc2[nH]c(C)cc(=O)c2c1`: the T/C runs as follows: (dose: 25.0 mg/kg/injection, schedule: Q01DX009 (ip), vehicle: water) 94 % of control; (dose: 50.0 mg/kg/injection, schedule: Q01DX009 (ip), vehicle: water) 94 % of control; (dose: 50.0 mg/kg/injection, schedule: Q04DX003 (ip), vehicle: water) 101 % of control; (dose: 100.0 mg/kg/injection, schedule: Q01DX009 (ip), vehicle: water) 92 % of control; (dose: 100.0 mg/kg/injection, schedule: Q04DX003 (ip), vehicle: water) 106 % of control; (dose: 200.0 mg/kg/injection, schedule: Q01DX009 (ip), vehicle: water) 91 % of control. Besides, the T/C is, setting by setting: (dose: 200.0 mg/kg/injection, schedule: Q04DX003 (ip), vehicle: water) 95 % of control; (dose: 400.0 mg/kg/injection, schedule: Q01DX009 (ip), vehicle: water) 92 % of control; (dose: 400.0 mg/kg/injection, schedule: Q04DX003 (ip), vehicle: water) 113 % of control.

Consider `OCC#CCO`, for which the T/C was 95 % of control (dose: 12.0 mg/kg/injection, schedule: Q01DX001 (ip), vehicle: saline); 113 % of control (dose: 25.0 mg/kg/injection, schedule: Q01DX001 (ip), vehicle: saline); 109 % of control (dose: 50.0 mg/kg/injection, schedule: Q01DX001 (ip), vehicle: saline).

As to `CC(=O)c1c(C)oc(C)c1C(C)=O`, the T/C runs as follows: under setting [2], 103 % of control; under setting [4], 111 % of control; under setting [5], 96 % of control.

As for `O=c1oc2cccc(O)c2c2c1CCCC2`, the T/C was 100 % of control under setting [6]; 104 % of control under setting [7]; 100 % of control (dose: 400.0 mg/kg/injection, schedule: Q04DX003 (ip), vehicle: Klucel (hydroxypropylcellulose) (HPC)).

Turning to `CC(CCC(=O)NC12CC3CC(CC(C3)C1)C2)C1CCC2C3CCC4CC(OC=O)CCC4(C)C3CC(OC=O)C12C` (configuration not stated), the T/C is 91 % of control (dose: 12.5 mg/kg/injection, schedule: Q04DX002 (ip), vehicle: saline with Tween-80) and 110 % of control (dose: 25.0 mg/kg/injection, schedule: Q04DX002 (ip), vehicle: saline with Tween-80).

For `COc1ccc(C(=S)N2CCN(c3ccccc3)CC2)cc1`, the T/C by setting is: (dose: 50.0 mg/kg/injection, schedule: Q01DX009 (ip), vehicle: saline with Tween-80) 95 % of control; under setting [1], 100 % of control; under setting [3], 95 % of control.

`CCN(CC)N=Nc1ccccc1-c1nc(N)c2ccccc2n1`: the T/C (dose: 50.0 mg/kg/injection, schedule: Q04DX003 (ip), vehicle: Klucel (hydroxypropylcellulose) (HPC)) was 157 % of control; the T/C under setting [6] is 161 % of control; the T/C under setting [7] was 180 % of control.

On to `Cc1c(OCc2ccccc2)cccc1[N+](=O)[O-]`, for which the T/C is, setting by setting: (dose: 100.0 mg/kg/injection, schedule: Q01DX009 (ip), vehicle: other) 109 % of control; (dose: 100.0 mg/kg/injection, schedule: Q04DX003 (ip), vehicle: other) 113 % of control; (dose: 200.0 mg/kg/injection, schedule: Q01DX009 (ip), vehicle: other) 119 % of control; (dose: 200.0 mg/kg/injection, schedule: Q04DX003 (ip), vehicle: other) 100 % of control; (dose: 400.0 mg/kg/injection, schedule: Q01DX009 (ip), vehicle: other) 109 % of control; (dose: 400.0 mg/kg/injection, schedule: Q04DX003 (ip), vehicle: other) 109 % of control.

With `CCN(CC)c1cccc(N)c1`, the T/C is 104 % of control (dose: 50.0 mg/kg/injection, schedule: Q01DX009 (sc), vehicle: olive oil, sesame oil, peanut oil); 100 % of control (dose: 50.0 mg/kg/injection, schedule: Q04DX003 (sc), vehicle: olive oil, sesame oil, peanut oil); 87 % of control (dose: 100.0 mg/kg/injection, schedule: Q01DX009 (sc), vehicle: olive oil, sesame oil, peanut oil); 104 % of control (dose: 100.0 mg/kg/injection, schedule: Q04DX003 (sc), vehicle: olive oil, sesame oil, peanut oil); 100 % of control (dose: 200.0 mg/kg/injection, schedule: Q04DX003 (sc), vehicle: olive oil, sesame oil, peanut oil).

Regarding `CC(=O)Nc1ccc(OCCOC(=O)Nc2ccc(C)cc2[N+](=O)[O-])cc1`, the T/C runs as follows: (dose: 12.5 mg/kg/injection, schedule: Q01DX009 (ip), vehicle: Klucel (hydroxypropylcellulose) (HPC)) 105 % of control; (dose: 25.0 mg/kg/injection, schedule: Q01DX009 (ip), vehicle: Klucel (hydroxypropylcellulose) (HPC)) 93 % of control.

Consider `COc1ccc(C(=O)CC(C#N)c2ccc(OC)c(OC)c2)cc1OC` (configuration not stated), for which the T/C is 100 % of control under setting [1], 100 % of control under setting [3] and 95 % of control under setting [8].

`CCOP1(=O)N(C)CCN1C`: the T/C (dose: 50.0 mg/kg/injection, schedule: Q01DX009 (ip), vehicle: saline) was 95 % of control.

On to `COc1ccc2nc3cc(Cl)ccc3c(NC(C)CCCN(CCCl)CCCl)c2c1` (configuration not stated), for which the T/C reads like this: (dose: 0.17 mg/kg/injection, schedule: Q04DX003 (ip), vehicle: saline) 110 % of control; (dose: 0.25 mg/kg/injection, schedule: Q01DX009 (ip), vehicle: saline) 154 % of control; (dose: 0.4 mg/kg/injection, schedule: Q01DX009 (ip), vehicle: saline) 162 % of control; (dose: 0.62 mg/kg/injection, schedule: Q01DX009 (ip), vehicle: saline) 159 % of control and 166 % of control; (dose: 0.93 mg/kg/injection, schedule: Q01DX009 (ip), vehicle: saline) 87 % of control and 100 % of control; (dose: 1.0 mg/kg/injection, schedule: Q01DX009 (ip), vehicle: saline) 118 % of control. Further, the T/C (dose: 4.0 mg/kg/injection, schedule: Q01DX009 (ip), vehicle: saline) is 95 % of control; the T/C (dose: 62.5 micrograms/kg/injection, schedule: Q01DX009 (ip), vehicle: saline) was 95 % of control; the T/C (dose: 125.0 micrograms/kg/injection, schedule: Q01DX009 (ip), vehicle: saline) was 113 % of control; the T/C (dose: 500.0 micrograms/kg/injection, schedule: Q01DX009 (ip), vehicle: saline) is 168 % of control; the T/C (dose: 1000.0 micrograms/kg/injection, schedule: Q01DX009 (ip), vehicle: saline) was 150 % of control.

Take `O=c1[nH]cnc2n[nH]nc12`: the T/C by setting is: under setting [1], 108 % of control; under setting [2], 104 % of control; under setting [3], 124 % of control; under setting [4], 113 % of control; under setting [8], 100 % of control; under setting [5], 104 % of control.
